From patent US20090142347A1, “Tissue-Nonspecific Alkaline Phosphatase (TNAP): a Therapeutic Target for Arterial Calcification” (THE BURNHAM INSTITUTE FOR MEDICAL RESEARCH, priority 2004, published 2009)

How the values were obtained:
hTNALP D433 = hTNALP D433 (Homo sapiens, UniProt P05186, R450D); test: biochemical
hTNALP Q109 = hTNALP Q109 (Homo sapiens, UniProt P05186, G126Q); test: biochemical
hTNALP A433 = hTNALP A433 (Homo sapiens, UniProt P05186, R450A); test: biochemical
chTNALP = biological target: T1, chTNALP (Gallus gallus, UniProt Q92058); test: Ki of uncompetitive inhibitors (pNPP substrate); assay type: biochemical, chicken; conditions: read-out: Ki for various inhibitors
T1 sequence (Q92058 17-498): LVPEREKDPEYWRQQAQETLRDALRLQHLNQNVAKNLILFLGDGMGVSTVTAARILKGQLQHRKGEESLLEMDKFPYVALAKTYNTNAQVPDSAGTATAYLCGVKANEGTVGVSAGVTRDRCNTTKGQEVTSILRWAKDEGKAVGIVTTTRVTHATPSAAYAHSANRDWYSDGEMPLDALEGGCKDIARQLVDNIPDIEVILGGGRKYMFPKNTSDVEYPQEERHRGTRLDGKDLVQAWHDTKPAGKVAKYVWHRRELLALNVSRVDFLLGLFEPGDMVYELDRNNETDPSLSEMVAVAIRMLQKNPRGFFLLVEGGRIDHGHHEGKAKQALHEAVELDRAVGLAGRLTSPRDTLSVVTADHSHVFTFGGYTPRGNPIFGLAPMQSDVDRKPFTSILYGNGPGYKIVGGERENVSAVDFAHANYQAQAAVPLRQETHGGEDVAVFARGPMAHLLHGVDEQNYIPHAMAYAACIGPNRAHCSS
Description: (See Kozlenkov A, et al., 2002). […] TNAP and PLAP structures were superimposed and the amino acid differences within a 12 Å radius around the catalytic Zn1 ion were pinpointed. The difference between human TNAP and chicken TNAP were also mapped because it is reported that chicken TNAP is much less susceptible to levamisol than is human TNAP. In total, six positions with amino acid differences were found, which could be clustered into two groups. […] In addition, […] and […] were also investigated.

hTNALP S434 = hTNALP S434 (Homo sapiens, UniProt P05186, H451S); test: biochemical
hTNALP S434, sequence (P05186 18-501 H451S): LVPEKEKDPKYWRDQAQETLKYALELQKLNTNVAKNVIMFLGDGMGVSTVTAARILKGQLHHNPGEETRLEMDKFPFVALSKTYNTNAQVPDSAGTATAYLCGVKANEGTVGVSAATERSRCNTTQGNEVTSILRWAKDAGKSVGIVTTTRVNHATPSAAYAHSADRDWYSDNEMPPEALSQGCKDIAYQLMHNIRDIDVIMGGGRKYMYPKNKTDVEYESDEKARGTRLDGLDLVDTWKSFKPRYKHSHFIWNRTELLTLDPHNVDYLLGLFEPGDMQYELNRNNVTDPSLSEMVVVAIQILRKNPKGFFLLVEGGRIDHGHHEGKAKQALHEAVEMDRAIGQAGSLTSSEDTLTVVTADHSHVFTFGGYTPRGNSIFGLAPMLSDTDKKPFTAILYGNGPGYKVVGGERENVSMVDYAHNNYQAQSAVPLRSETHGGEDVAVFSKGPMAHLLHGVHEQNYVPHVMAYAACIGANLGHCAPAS

hTNALP N166 = hTNALP N166 (Homo sapiens, UniProt P05186, D183N); test: biochemical
hTNALP N166, sequence (P05186 18-501 D183N): as the sequence (P05186 18-501 H451S) above, with D166N, S434H counted along it

hTNALP D120 = hTNALP D120 (Homo sapiens, UniProt P05186, S137D); test: biochemical
hTNALP D120, sequence (P05186 18-501 S137D): as the sequence (P05186 18-501 H451S) above, with S120D, S434H counted along it

hTNALP F108 = hTNALP F108 (Homo sapiens, UniProt P05186, E125F); test: biochemical
hTNALP F108, sequence (P05186 18-501 E125F): as the sequence (P05186 18-501 H451S) above, with E108F, S434H counted along it

hPLALP R428 = biological target: T2, hPLALP R428 (Homo sapiens, UniProt P05187, D450R); test: Ki of uncompetitive inhibitors (pNPP substrate); assay type: biochemical; conditions: hPLALP mutant R428; read-out: Ki for various inhibitors
T2 construct: made in house; host or cells: COS-7 (given only for the TNAP-Flag constructs)
T2 sequence (P05187 23-506 D450R limits assumed): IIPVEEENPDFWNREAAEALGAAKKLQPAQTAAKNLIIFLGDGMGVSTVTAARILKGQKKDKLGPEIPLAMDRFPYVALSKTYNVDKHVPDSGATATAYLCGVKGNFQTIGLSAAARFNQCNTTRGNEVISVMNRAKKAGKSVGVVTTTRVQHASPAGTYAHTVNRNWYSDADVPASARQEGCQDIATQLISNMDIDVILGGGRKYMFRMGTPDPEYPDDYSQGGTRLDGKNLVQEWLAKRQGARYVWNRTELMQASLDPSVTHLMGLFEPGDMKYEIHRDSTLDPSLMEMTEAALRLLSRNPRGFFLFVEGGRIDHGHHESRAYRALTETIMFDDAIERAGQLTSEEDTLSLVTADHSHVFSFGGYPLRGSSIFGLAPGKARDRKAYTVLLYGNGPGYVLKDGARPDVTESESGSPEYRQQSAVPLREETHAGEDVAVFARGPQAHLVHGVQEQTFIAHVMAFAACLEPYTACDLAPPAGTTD
Experimental: (§1) In brief, samples of the enzymes were added to microtiter plates coated with M2 anti-FLAG antibody, and saturating activities with the substrate pNPP were measured in 1 M DEA/HCl buffer, pH 9.8, containing 1 mM MgCl2 and 20 .micro.M ZnCl2.

hPLALP (E107, G108) = biological target: T3, hPLALP (E107, G108) (Homo sapiens, UniProt P05187, F129E/Q130G); test: Ki of uncompetitive inhibitors (pNPP substrate); assay type: biochemical; conditions: hPLALP mutant (E107, G108); read-out: Ki for various inhibitors
T3 construct: made in house; host or cells: COS-7 (given only for the TNAP-Flag constructs)
T3 sequence (P05187 23-506 F129E/Q130G limits assumed): as the sequence (P05187 23-506 D450R limits assumed) above, with F107E, Q108G, R428D counted along it
Experimental: as §1

hPLALP (E107, G429) = biological target: T4, hPLALP (E107, G429) (Homo sapiens, UniProt P05187, E451G/F129E); test: Ki of uncompetitive inhibitors (pNPP substrate); assay type: biochemical; conditions: hPLALP mutant (E107, G429); read-out: Ki for various inhibitors
T4 construct: made in house; host or cells: COS-7 (given only for the TNAP-Flag constructs)
T4 sequence (P05187 23-506 F129E/E451G limits assumed): as the sequence (P05187 23-506 D450R limits assumed) above, with F107E, R428D, E429G counted along it
Experimental: as §1

hPLALP E107 = biological target: T5, hPLALP E107 (Homo sapiens, UniProt P05187, F129E); test: Ki of uncompetitive inhibitors (pNPP substrate); assay type: biochemical; conditions: hPLALP mutant E107; read-out: Ki for various inhibitors
T5 construct: made in house
T5 sequence (P05187 23-506 F129E limits assumed): as the sequence (P05187 23-506 D450R limits assumed) above, with F107E, R428D counted along it
Experimental: as §1

hPLALP G108 = biological target: T6, hPLALP G108 (Homo sapiens, UniProt P05187, Q130G); test: Ki of uncompetitive inhibitors (pNPP substrate); assay type: biochemical; conditions: hPLALP mutant G108; read-out: Ki for various inhibitors
T6 construct: made in house; host or cells: COS-7 (given only for the TNAP-Flag constructs)
T6 sequence (P05187 23-506 Q130G limits assumed): as the sequence (P05187 23-506 D450R limits assumed) above, with Q108G, R428D counted along it
Experimental: as §1

hPLALP (G108, G429) = biological target: T7, hPLALP (G108, G429) (Homo sapiens, UniProt P05187, E451G/Q130G); test: Ki of uncompetitive inhibitors (pNPP substrate); assay type: biochemical; conditions: hPLALP mutant (G108, G429); read-out: Ki for various inhibitors
T7 construct: made in house; host or cells: COS-7 (given only for the TNAP-Flag constructs)
T7 sequence (P05187 23-506 Q130G/E451G limits assumed): as the sequence (P05187 23-506 D450R limits assumed) above, with Q108G, R428D, E429G counted along it
Experimental: as §1

hPLALP G429 = biological target: T8, hPLALP G429 (Homo sapiens, UniProt P05187, E451G); test: Ki of uncompetitive inhibitors (pNPP substrate); assay type: biochemical; conditions: hPLALP mutant G429; read-out: Ki for various inhibitors
T8 construct: made in house; host or cells: COS-7 (given only for the TNAP-Flag constructs)
T8 sequence (P05187 23-506 E451G limits assumed): as the sequence (P05187 23-506 D450R limits assumed) above, with R428D, E429G counted along it
Experimental: as §1

hPLALP S119 = biological target: T9, hPLALP S119 (Homo sapiens, UniProt P05187, N141S); test: Ki of uncompetitive inhibitors (pNPP substrate); assay type: biochemical; conditions: hPLALP mutant S119; read-out: Ki for various inhibitors
T9 construct: made in house; host or cells: COS-7 (given only for the TNAP-Flag constructs)
T9 sequence (P05187 23-506 N141S limits assumed): as the sequence (P05187 23-506 D450R limits assumed) above, with N119S, R428D counted along it
Experimental: as §1

hPLALP D165 = biological target: T10, hPLALP D165 (Homo sapiens, UniProt P05187, N187D); test: Ki of uncompetitive inhibitors (pNPP substrate); assay type: biochemical; conditions: hPLALP mutant D165; read-out: Ki for various inhibitors
T10 construct: made in house; host or cells: COS-7 (given only for the TNAP-Flag constructs)
T10 sequence (P05187 23-506 N187D limits assumed): as the sequence (P05187 23-506 D450R limits assumed) above, with N165D, R428D counted along it
Experimental: as §1

hPLALP = biological target: T11, hPLALP (Homo sapiens, UniProt P05187); test: Ki of uncompetitive inhibitors (pNPP substrate); assay type: biochemical; conditions: read-out: Ki for various inhibitors
T11 construct: made in house
T11 sequence (P05187 23-506 limits assumed): as the sequence (P05187 23-506 D450R limits assumed) above, with R428D counted along it
Experimental: as §1

hPLALP H429 = biological target: T12, hPLALP H429 (Homo sapiens, UniProt P05187, E451H); test: Ki of uncompetitive inhibitors (pNPP substrate); assay type: biochemical; conditions: hPLALP mutant H429; read-out: Ki for various inhibitors
T12 construct: made in house; host or cells: COS-7 (given only for the TNAP-Flag constructs)
T12 sequence (P05187 23-506 E451H limits assumed): as the sequence (P05187 23-506 D450R limits assumed) above, with R428D, E429H counted along it
Experimental: as §1

hTNALP A108 = hTNALP A108 (Homo sapiens, UniProt P05186, E125A); test: biochemical
hTNALP A108, sequence (P05186 18-501 E125A): as the sequence (P05186 18-501 H451S) above, with E108A, S434H counted along it

hTNALP A168 = hTNALP A168 (Homo sapiens, UniProt P05186, D185A); test: biochemical
hTNALP A168, sequence (P05186 18-501 D185A): as the sequence (P05186 18-501 H451S) above, with D168A, S434H counted along it

hTNALP A371 = hTNALP A371 (Homo sapiens, UniProt P05186, Y388A); test: biochemical
hTNALP A371, sequence (P05186 18-501 Y388A): as the sequence (P05186 18-501 H451S) above, with Y371A, S434H counted along it

hTNALP Q109, sequence (P05186 18-501 G126Q): as the sequence (P05186 18-501 H451S) above, with G109Q, S434H counted along it
hTNALP A433, sequence (P05186 18-501 R450A): as the sequence (P05186 18-501 H451S) above, with R433A, S434H counted along it
hTNALP D433, sequence (P05186 whole entry R450D): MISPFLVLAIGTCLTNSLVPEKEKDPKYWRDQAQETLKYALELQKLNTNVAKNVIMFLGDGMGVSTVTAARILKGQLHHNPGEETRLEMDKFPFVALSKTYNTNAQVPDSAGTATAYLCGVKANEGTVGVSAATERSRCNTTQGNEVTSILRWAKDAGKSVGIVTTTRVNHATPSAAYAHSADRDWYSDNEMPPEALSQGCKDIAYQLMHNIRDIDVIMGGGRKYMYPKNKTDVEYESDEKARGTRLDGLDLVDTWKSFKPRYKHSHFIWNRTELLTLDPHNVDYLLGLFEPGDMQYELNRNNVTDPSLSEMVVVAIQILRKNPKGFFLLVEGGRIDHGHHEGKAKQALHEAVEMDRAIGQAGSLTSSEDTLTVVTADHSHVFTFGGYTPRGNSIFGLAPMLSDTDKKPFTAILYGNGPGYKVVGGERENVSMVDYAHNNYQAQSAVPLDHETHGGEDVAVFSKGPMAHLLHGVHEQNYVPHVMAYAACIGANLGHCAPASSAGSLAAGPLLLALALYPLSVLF

| SMILES | Ki (hTNALP D433) [mM] | Ki (hTNALP Q109) [mM] | Ki (hTNALP A433) [mM] | Ki (chTNALP) [mM] | Ki (hTNALP S434) [mM] | Ki (hTNALP N166) [mM] | Ki (hTNALP D120) [mM] | Ki (hTNALP F108) [mM] | Ki (hPLALP R428) [mM] | Ki (hPLALP (E107, G108)) [mM] | Ki (hPLALP (E107, G429)) [mM] | Ki (hPLALP E107) [mM] | Ki (hPLALP G108) [mM] | Ki (hPLALP (G108, G429)) [mM] | Ki (hPLALP G429) [mM] | Ki (hPLALP S119) [mM] | Ki (hPLALP D165) [mM] | Ki (hPLALP) [mM] | Ki (hPLALP H429) [mM] | Ki (hTNALP A108) [mM] | also measured |
| --- | --- | --- | --- | --- | --- | --- | --- | --- | --- | --- | --- | --- | --- | --- | --- | --- | --- | --- | --- | --- | --- |
| N[C@@H](Cc1ccccc1)C(=O)O [L-Phe, L-phenylalanine] | 23 ± 5 | 4 ± 1.1 | 31 ± 3 | 11 ± 0.9 | 13 ± 2 | 32 ± 5 | 34 ± 4 | 3.7 ± 0.5 | 0.54 ± 0.05 | 23 ± 2 | 1 ± 0.16 | 3.8 ± 0.4 | 2.4 ± 0.3 | 0.49 ± 0.06 | 0.09 ± 0.01 | 0.67 ± 0.08 | 0.54 ± 0.04 | 0.75 ± 0.05 | 0.31 ± 0.03 | 27 ± 4 | Ki (hTNALP A168): 30 ± 4 mM; Ki (hTNALP A371): 65 ± 24 mM |
| N=C(N)NCCCC[C@H](N)C(=O)O [L-hArg, L-homoarginine] | 1.5 ± 0.2 | 1.6 ± 0.1 | 1.6 ± 0.2 | 1.9 ± 0.2 | 1.6 ± 0.1 | 1.8 ± 0.1 | 1.4 ± 0.1 | 48 ± 11 | 36 ± 4 | 12 ± 1.6 | 1.5 ± 0.2 | 5.7 ± 0.9 | 60 ± 9 | 18 ± 2 | 12 ± 2 | 61 ± 13 | 59 ± 25 | 59 ± 15 | 10.7 ± 1.5 | 14 ± 1 | Ki (hTNALP A168): 1.5 ± 0.3 mM; Ki (hTNALP A371): 31 ± 3 mM |
